{
  "source": "patent US5081023A",
  "about": "“Antibiotic L53-18A and process for preparation thereof” (Toyo Yozo Company, Ltd., priority 1989, dated 1992)",
  "key": {"[1]": {"tested_on": "Saccharopolyspora sp. L53-18", "assay": "Resistance to antibiotic (MIC), Table 3", "assay_type": "cell-based", "from_the_text": "[according to J. Antibiot. 32: 180-186 (1976)]"}, "[2]": {"tested_on": "Saccharopolyspora sp. L53-18", "assay": "Resistance to lysozyme", "assay_type": "cell-based", "conditions": "producing strain L53-18", "from_the_text": "(8) Resistance to lysozyme: sensitive [Inter. J. System. Bacteriol. 27: 176-178 (1977)]"}, "[3]": {"tested_on": "Escherichia coli NIHJ JC-2", "assay": "Antimicrobial activity (MIC), Table 1", "assay_type": "cell-based", "conditions": "NIHJJC2, read-out: Minimum growth inhibitory concentration"}, "[4]": {"tested_on": "Klebsiella pneumoniae NCTC 9632", "assay": "Antimicrobial activity (MIC), Table 1", "assay_type": "cell-based", "conditions": "NCTC9632, read-out: Minimum growth inhibitory concentration"}, "[5]": {"tested_on": "Staphylococcus epidermidis ATCC 27626", "assay": "Antimicrobial activity (MIC), Table 1", "assay_type": "cell-based", "conditions": "ATCC27626, read-out: Minimum growth inhibitory concentration"}, "[6]": {"tested_on": "Bacillus subtilis ATCC 6633", "assay": "Antimicrobial activity (MIC), Table 1", "assay_type": "cell-based", "conditions": "ATCC6633, read-out: Minimum growth inhibitory concentration"}, "[7]": {"assay": "Distinction of acidic or basic", "assay_type": "physicochemical"}, "[8]": {"tested_on": "Streptococcus agalactiae 1020", "assay": "Antimicrobial activity (MIC), Table 1", "assay_type": "cell-based", "conditions": "read-out: Minimum growth inhibitory concentration"}, "mice": {"tested_on": "mice", "assay": "Acute toxicity", "assay_type": "in vivo", "conditions": "ip, 10 per group, mice surviving at this dose", "protocol": "(16) Acute toxicity: 300 mg/kg (ip) with surviving mice (10 mice per one group)."}, "Sarcina lutea ATCC 9341": {"tested_on": "Sarcina lutea ATCC 9341", "assay": "Antimicrobial activity (MIC), Table 1", "assay_type": "cell-based", "conditions": "Micrococcus luteus, ATCC9341, read-out: Minimum growth inhibitory concentration"}, "[9]": {"tested_on": "Streptococcus pyogenes N.Y.5", "assay": "Antimicrobial activity (MIC), Table 1", "assay_type": "cell-based", "conditions": "read-out: Minimum growth inhibitory concentration"}, "Gram-positive bacteria": {"tested_on": "Gram-positive bacteria", "assay": "Antibacterial activity", "assay_type": "cell-based"}, "[10]": {"tested_on": "Staphylococcus aureus FDA 209P JC-1", "assay": "Antimicrobial activity (MIC), Table 1", "assay_type": "cell-based", "conditions": "FDA209P, read-out: Minimum growth inhibitory concentration"}, "Solubility": {"assay": "Solubility", "assay_type": "physicochemical"}, "[11]": {"tested_on": "Pseudomonas aeruginosa IAM 1095", "assay": "Antimicrobial activity (MIC), Table 1", "assay_type": "cell-based", "conditions": "IAM1095, read-out: Minimum growth inhibitory concentration"}, "[12]": {"conditions": "resistance of producing strain L53-18 to antibiotics, read-out: MIC"}, "[13]": {"conditions": "resistance of producing strain L53-18 to antibiotics"}},
  "note": "Like-named read-outs stand apart in the source and are kept apart here.",
  "data": [
    {"compound": "NC[C@H]1O[C@H](O[C@H]2[C@H](O)[C@@H](O[C@H]3O[C@H](CO)[C@@H](O)[C@H](N)[C@H]3O)[C@H](N)C[C@@H]2N)[C@H](O)[C@@H](O)[C@@H]1O", "note": "[Kanamycin]", "values": [
      {"measurement": "MIC", "setting": "[1]", "result": 63, "unit": "µg/mL"}
    ]},
    {"compound": "CCCC(=O)O[C@H]1[C@H](C)O[C@@H](O[C@H]2[C@H](N(C)C)[C@@H](O)[C@H](O[C@H]3[C@@H](CC=O)C[C@@H](C)[C@@H](O)/C=C/C=C/C[C@@H](C)OC(=O)C[C@@H](O)[C@@H]3OC)O[C@@H]2C)C[C@@]1(C)O", "note": "[Leucomycin A5]", "values": [
      {"measurement": "MIC", "setting": "[1]; [12]", "result": "> 1000", "unit": "µg/mL"}
    ]},
    {"compound": "CN[C@@H]1[C@H](O)[C@H](NC)[C@H]2O[C@@]3(O)C(=O)C[C@@H](C)O[C@H]3O[C@@H]2[C@H]1O", "note": "[Spectinomycin]", "values": [
      {"measurement": "MIC", "setting": "[1]; [12]", "result": "> 1000", "unit": "µg/mL"}
    ]},
    {"compound": "[H]/N=C(/N)N[C@H]1[C@H](O)[C@@H](O)[C@H](O[C@@H]2O[C@@H](C)[C@](O)(C=O)[C@H]2O[C@@H]2O[C@@H](CO)[C@H](O)[C@@H](O)[C@@H]2NC)[C@@H](N/C(N)=N\\[H])[C@@H]1O", "note": "[Streptomycin]", "values": [
      {"measurement": "MIC", "setting": "[1]; [12]", "result": 31, "unit": "µg/mL"}
    ]},
    {"compound": "CO[C@H]1/C=C/O[C@@]2(C)Oc3c(C)c(O)c4c(O)c(c(/C=N/N5CCN(C)CC5)c(O)c4c3C2=O)NC(=O)/C(C)=C\\C=C\\[C@H](C)[C@H](O)[C@@H](C)[C@@H](O)[C@@H](C)[C@H](OC(C)=O)[C@@H]1C", "note": "[Rifampicin]", "values": [
      {"measurement": "MIC", "setting": "[1]; [12]", "result": "< 16", "unit": "µg/mL"}
    ]},
    {"compound": "lysozyme", "values": [
      {"measurement": "Resistance to lysozyme", "setting": "[2]", "result": "sensitive"}
    ]},
    {"compound": "CC[C@H]1OC(=O)[C@H](C)[C@@H](O[C@H]2C[C@@](C)(OC)[C@@H](O)[C@H](C)O2)[C@H](C)[C@@H](O[C@@H]2O[C@H](C)C[C@H](N(C)C)[C@H]2O)[C@](C)(O)C[C@@H](C)C2=C(C)C(=O)[C@]1(C)O2", "note": "[Antibiotic L53-18A]", "values": [
      {"measurement": "MIC", "setting": "[3]", "result": "> 100", "unit": "µg/mL"},
      {"measurement": "MIC", "setting": "[4]", "result": "> 100", "unit": "µg/mL"},
      {"measurement": "MIC", "setting": "[5]", "result": 0.2, "unit": "µg/mL"},
      {"measurement": "MIC", "setting": "[6]", "result": "< 0.05", "unit": "µg/mL"},
      {"measurement": "Distinction of acidic or basic", "setting": "[7]", "result": "basic"},
      {"measurement": "MIC", "setting": "[8]", "result": "< 0.05", "unit": "µg/mL"},
      {"measurement": "Acute toxicity (dose with surviving mice)", "setting": "mice", "result": 300, "unit": "mg/kg"},
      {"measurement": "MIC", "setting": "Sarcina lutea ATCC 9341", "result": "< 0.05", "unit": "µg/mL"},
      {"measurement": "MIC", "setting": "[9]", "result": "< 0.05", "unit": "µg/mL"},
      {"measurement": "antibacterial activity to Gram-positive bacteria", "setting": "Gram-positive bacteria", "result": "shows antibacterial activity to Gram-positive bacteria"},
      {"measurement": "MIC", "setting": "[10]", "result": 0.2, "unit": "µg/mL"},
      {"measurement": "Solubility", "setting": "Solubility", "result": "Soluble in methanol, ethanol, acetone, ethyl acetate, chloroform, benzene and acidic water"},
      {"measurement": "MIC", "setting": "[11]", "result": "> 100", "unit": "µg/mL"}
    ]},
    {"compound": "NC[C@@H]1O[C@H](O[C@H]2[C@@H](O)[C@H](O[C@@H]3[C@@H](O)[C@H](N)C[C@H](N)[C@H]3O[C@H]3O[C@H](CO)[C@@H](O)[C@H](O)[C@H]3N)O[C@@H]2CO)[C@H](N)[C@@H](O)[C@@H]1O", "note": "[Paromomycin]", "values": [
      {"measurement": "MIC", "setting": "[1]; [12]", "result": 31, "unit": "µg/mL"}
    ]},
    {"compound": "Gentamicin", "values": [
      {"measurement": "MIC", "setting": "[1]; [13]", "result": 16, "unit": "µg/mL"}
    ]},
    {"compound": "Neomycin", "values": [
      {"measurement": "MIC", "setting": "[1]; [13]", "result": 63, "unit": "µg/mL"}
    ]}
  ]
}
